# Source: patent publication US9387231B2, “Compositions comprising a Brd4 antagonist and methods for the treatment of HIV” (THE CHILDREN'S HOSPITAL OF PHILADELPHIA, priority 2011, dated 2016)
# Legend:
# Type in all cases: cell-based
# HIV-1 LTR promoter = experiment: Activation of the HIV LTR in CEMss LTR-GFP reporter cells (GFP by flow cytometry)
# Method: CEMss LTR-GFP cells were infected with NL43 and cultured in the presence of the BET antagonists JQ1(+) (1 μM) or the control enantiomer JQ1(−). GFP expression in cells was examined by flow cytometry. A representative of three experiments is shown. FIG. 2B provides a graph showing GFP expression in cells when cultured with different amounts of JQ1, as determined by flow cytometry. 0.25 μM of JQ1(+) was sufficient to dramatically increase the expression of GFP in NL43 infected CEMss LTR-GFP cells. FIGS. 2C and 2D show percentage of GFP expression (FIG. 2C) and mean fluorescence of GFP (MFI; FIG. 2D) in CEMss LTR-GFP cells cultured in the presence of JQ1(+) or JQ1(−) (1 μM), and different amount of HIV-1 Tat. FIG. 2E provides dot plots of CEMss LTR-GFP cells were cultured with increasing amounts of HIV Tat (0, 8, 16 or 32 μg/ml) in the presence of JQ1(+) or JQ1(−) (1 μM) for 1 day. Non-underlined numbers indicate percentage of GFP and underlined numbers indicate mean fluorescence of GFP (MFI).
# (§1) GFP expression was measured by flow cytometry. FIGS. 3B and 3C shown the percentage of cells positive for GFP (FIG. 3B) and the mean MFI of GFP (FIG. 3C) in latently infected cell lines, J-Lat clones 82, A72, A7, A2, and A1, at 16 hours after TNFα or PHA was added in the cultures in the presence of JQ1(+) or JQ1(−). […] GFP expression in cells was measured by flow cytometry and is indicated as percent of GFP+ cells in gated live cell populations. An average of 5 experiments is shown. * p<0.05, ** p<0.01, *** p<0.001. […] Average of 3 experiments is shown. * p<0.05. For FIG. 3F, J-Lat A2 and A72 cells were reactivated with TNFα (20 ng/ml) or HIV Tat protein (50 μg/ml) in the presence of JQ1(+) or JQ1(−) for 16-18 hours, and GFP expression in cells was measured by flow cytometry. One representative experiment is shown. In each dot plot, non-underlined numbers indicate percentage of GFP+ cells and underlined numbers indicate mean fluorescence of GFP (MFI).
# BET antagonists also drive activation of the HIV LTR. Specifically, the effects of JQ1 on transcription from the HIV LTR were tested. CEMss LTR-GFP cells (a reporter cell line stably transfected with GFP under the control of the HIV-1 LTR promoter) were infected with NL43 and cultured in the presence of BET antagonists or controls. GFP expression was measured at days 0, 1, 2, 3, and 6 post-infection. GFP expression was higher in the presence of the BET inhibitor (JQ1) compared to controls (FIG. 2A). Further, by varying the amount of JQ1, it was determined that 0.25 μM of JQ1(+) was sufficient to dramatically increase Tat-driven HIV-1 transcription (FIG. 2B). CEMss LTR-GFP cells were also cultured in the presence of JQ1(+) or JQ1(−) (1 μM) and different amount of HIV-1 Tat (0-32 μg/ml). […] FIG. 2E provides dot plots of the experiments.
# (§2) Next, the effect of JQ1 on activation of the HIV LTR was tested using a latently infected Jurkat-derived cell clone, J-Lat clone A2. GFP expression in J-Lat clone A2 is induced upon reactivation with tumor necrosis factor-alpha (TNFα) or phytohaemagglutinin (PHA).
# HIV-1 NL43 = experiment: Viral integration in primary resting CD4 T-cells by Alu-PCR; details: for provirus/cell: NL43, 1 μM, T48 h, listed as JQ(+)
# Method: To determine if JQ1(+) affects viral integration in primary resting CD4 T-cells, the cells were purified and infected with HIV-1 NL43 or mock control. The infected cells were then cultured in the presence of 1 μM of JQ1(+) or JQ1(−) for 48 hours. Cell pellets were collected at 0 hours and 48 hours after infection. DNA was isolated and the viral integration in resting CD4 T-cells was measured by Alu-PCR.
# HIV LTR = experiment: Reactivation of the HIV LTR in latently infected J-Lat clones (GFP by flow cytometry)
# Method: as §1, §2
# To further study the mechanism of how JQ1 drives reactivation of HIV latency, HIV latently infected T-cell lines—J-Lat clones A1, A2, A7, and A72—were utilized. The effect of JQ1(+) on reactivation of HIV latency in these cell lines were confirmed. TNFα (20 ng/ml) or PHA (1.5 μg/ml) was added to cultures of J-Lat clones in the presence of 1 μM JQ1(+) or JQ1(−). After 16 hours, expression of GFP was measured by flow cytometry. […] In the presence of HIV Tat, BET antagonism enhances Tat-driven transcription of the HIV LTR in J-Lat clones A2 and A72 (FIG. 3F; underlined numbers indicate mean GFP fluorescence, non-underlined numbers indicate percent of GFP+ cells). […] Displacement of Brd4 from chromatin by JQ1(+) may cause conformational change in the chromatin, exposing NF-κb binding sites, leading to increased HIV transcription and reactivation of latency.
# HIV (NL43, SG3) = experiment: Viral production and p24Gag expression in HIV-infected CEMss LTR-GFP cells
structure (smiles),measurement,setting,value
"Cc1sc2c(c1C)C(c1ccc(Cl)cc1)=N[C@@H](CC(=O)OC(C)(C)C)c1nnc(C)n1-2 [JQ1(+), tert-butyl 2-((6S)-4-(4-chlorophenyl)-2,3,9-trimethyl-6H-thieno[3,2-f][1,2,4]triazolo[4,3-a][1,4]diazepin-6-yl)acetate]",GFP expression,"HIV-1 LTR promoter; CEMss LTR-GFP cells infected with NL43, 1 μM, compared to controls, days 0-6",higher
same,TNFα-induced activation of the HIV LTR,"HIV-1 LTR promoter; CEMss LTR-GFP cells, 20 ng/ml TNFα, 1 μM, 1 day, absence of Tat",promotes
same,Mean fluorescence intensities (MFI) of GFP,"HIV-1 LTR promoter; CEMss LTR-GFP cells, 1 μM, with 8, 16 or 32 μg/ml HIV-1 Tat",dramatically enhanced
same,Amount sufficient to dramatically increase Tat-driven HIV-1 transcription (GFP expression),HIV-1 LTR promoter; NL43 infected CEMss LTR-GFP cells,0.25 µM
same,provirus/cell,"HIV-1 NL43; Exp. 1, primary resting CD4 T-cells",0.559 ± 0.005 provirus/cell
same,provirus/cell,"HIV-1 NL43; Exp. 2, primary resting CD4 T-cells",0.444 ± 0.120 provirus/cell
same,Viral integration,"HIV-1 NL43; primary resting CD4 T-cells, 1 μM, 48 hours, Alu-PCR",does not significantly affect
same,GFP expression (% positive cells and mean fluorescence intensity),"HIV LTR; J-Lat clone A2, with TNFα or PHA, 0.5 μM, 16 hours, versus JQ1(−) control",higher
same,Tat-driven transcription of the HIV LTR (GFP),"HIV LTR; J-Lat clones A2 and A72, HIV Tat protein 50 μg/ml, 16-18 hours",enhances
same,GFP expression with TNFα,"HIV LTR; J-Lat clones A72 and A2, TNFα 20 ng/ml plus compound 1 μM",dramatically enhanced
same,Percent of cells expressing GFP,"HIV LTR; J-Lat clones, compound alone, 1 μM, 16-18 hours",increased
same,Relative number of Gag-expressing live GFP+ cells,"HIV (NL43, SG3); CEMss LTR-GFP cells infected with SG3, day 5 post-infection, flow cytometry",significantly decreased
same,Production of p24 in supernatants,"HIV (NL43, SG3); CEMss LTR-GFP cells, HIV NL4-3, 0.25 μM, day 6 after infection, ELISA",decreased below control values
same,Expression of p24Gag in the infected cells (ratio of p24+ in GFP+ population),"HIV (NL43, SG3); CEMss LTR-GFP cells, NL43, 1 μM, day 3 after infection",decreased
same,"Viral production (p24Gag in supernatants, ELISA)","HIV (NL43, SG3); CEMss LTR-GFP cells, NL43, 1 μM, day 6 after infection",decreased
